PubChem BioAssay AID248 (DTP/NCI, 2004)
Several values for one entry are separate records, joined by “and”; a condition that tells them apart may be missing. Identical values can stand only once. Toxic doses and inconclusive results are not listed. Rule as the data show it: active = T/C of 150% or more; inactive = T/C below 125%.

Test system: L1210 leukemia ip in BDF1 mice, survival T/C
Assay: NCI In Vivo Anticancer Drug Screen. Data for tumor model L1210 Leukemia (intraperitoneal) in B6D2F1 (BDF1) mice
Conditions: endpoint: mean survival time, higher = longer survival
Outline: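 Value reflects the ratio of survival in compound-treated mice to survival in vehicle-treated controls, with both groups carrying the same transplanted tumor.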

[1] = dose: 50.0 mg/kg/injection, schedule: Q01DX009 (ip), vehicle: saline with Tween-80
[2] = dose: 100.0 mg/kg/injection, schedule: Q04DX003 (ip), vehicle: saline with Tween-80
[3] = dose: 200.0 mg/kg/injection, schedule: Q04DX003 (ip), vehicle: saline with Tween-80
[4] = dose: 75.0 mg/kg/injection, schedule: Q01DX001 (ip), vehicle: carboxymethylcellulose (CMC)
[5] = dose: 100.0 mg/kg/injection, schedule: Q04DX003 (ip), vehicle: Klucel (hydroxypropylcellulose) (HPC)
[6] = dose: 100.0 mg/kg/injection, schedule: Q01DX001 (ip), vehicle: saline
[7] = dose: 200.0 mg/kg/injection, schedule: Q01DX001 (ip), vehicle: saline
[8] = dose: 400.0 mg/kg/injection, schedule: Q01DX001 (ip), vehicle: saline
[9] = dose: 50.0 mg/kg/injection, schedule: Q01DX009 (ip), vehicle: saline
[10] = dose: 100.0 mg/kg/injection, schedule: Q01DX009 (ip), vehicle: saline
[11] = dose: 50.0 mg/kg/injection, schedule: Q01DX009 (ip), vehicle: Klucel (hydroxypropylcellulose) (HPC)
[12] = dose: 100.0 mg/kg/injection, schedule: Q01DX009 (ip), vehicle: Klucel (hydroxypropylcellulose) (HPC)
[13] = dose: 200.0 mg/kg/injection, schedule: Q01DX009 (ip), vehicle: Klucel (hydroxypropylcellulose) (HPC)
[14] = dose: 200.0 mg/kg/injection, schedule: Q04DX003 (ip), vehicle: Klucel (hydroxypropylcellulose) (HPC)
[15] = dose: 400.0 mg/kg/injection, schedule: Q04DX003 (ip), vehicle: Klucel (hydroxypropylcellulose) (HPC)

Measured: T/C

CC(C)(C)c1ccc(N)cc1Br
inactive: dose: 12.5 mg/kg/injection, schedule: Q01DX009 (ip), vehicle: saline with Tween-80 95 % of control | dose: 25.0 mg/kg/injection, schedule: Q01DX009 (ip), vehicle: saline with Tween-80 93 % of control | [1] 97 % of control | [2] 92 % of control | [3] 96 % of control

O=C(O)c1cccc(F)c1CBr
inactive: [4] 104 % of control

CN(C)C(=S)Oc1ccccn1
inactive: dose: 25.0 mg/kg/injection, schedule: Q04DX003 (ip), vehicle: Klucel (hydroxypropylcellulose) (HPC) 106 % of control | dose: 50.0 mg/kg/injection, schedule: Q04DX003 (ip), vehicle: Klucel (hydroxypropylcellulose) (HPC) 104 % of control | [5] 102 % of control and 105 % of control

CON(C)c1nc2ccccc2o1
inactive: dose: 50.0 mg/kg/injection, schedule: Q01DX001 (ip), vehicle: saline 103 % of control | [6] 100 % of control | [7] 100 % of control | [8] 100 % of control

CC(=O)OC1CCCCC1c1cccc(C)c1 (centres undefined)
inactive: dose: 100.0 mg/kg/injection, schedule: Q04DX003 (ip), vehicle: acetone 110 % of control | dose: 200.0 mg/kg/injection, schedule: Q04DX003 (ip), vehicle: acetone 102 % of control | dose: 400.0 mg/kg/injection, schedule: Q04DX003 (ip), vehicle: acetone 98 % of control

CCOC(=O)C[n+]1ccccc1
inactive: [1] 98 % of control | [9] 96 % of control | dose: 100.0 mg/kg/injection, schedule: Q01DX009 (ip), vehicle: saline with Tween-80 93 % of control | [10] 102 % of control | dose: 200.0 mg/kg/injection, schedule: Q01DX009 (ip), vehicle: saline with Tween-80 91 % of control

CC(=O)C1C(=O)N(C)C(=O)N(C)C1=O
inactive: [4] 97 % of control | dose: 150.0 mg/kg/injection, schedule: Q01DX001 (ip), vehicle: carboxymethylcellulose (CMC) 100 % of control | dose: 300.0 mg/kg/injection, schedule: Q01DX001 (ip), vehicle: carboxymethylcellulose (CMC) 103 % of control

COC1(OC)C2(Cl)C3C4C5(OC(C)=O)C(=O)C3(OC(C)=O)C3C5C(Cl)(C41Cl)C32Cl (centres undefined)
inactive: [6] 100 % of control | [7] 96 % of control | [8] 96 % of control

O=C(O)CCBr
inactive: [6] 93 % of control | [7] 104 % of control

CN1CCC(OC2c3ccccc3CCc3ccccc32)CC1
inactive: dose: 3.12 mg/kg/injection, schedule: Q01DX009 (ip), vehicle: saline 109 % of control | dose: 6.25 mg/kg/injection, schedule: Q01DX009 (ip), vehicle: saline 108 % of control | dose: 12.5 mg/kg/injection, schedule: Q01DX009 (ip), vehicle: saline 106 % of control | dose: 25.0 mg/kg/injection, schedule: Q01DX009 (ip), vehicle: saline 111 % of control | dose: 25.0 mg/kg/injection, schedule: Q04DX003 (ip), vehicle: saline 100 % of control | [9] 117 % of control | dose: 50.0 mg/kg/injection, schedule: Q04DX003 (ip), vehicle: saline 103 % of control | [10] 88 % of control | dose: 100.0 mg/kg/injection, schedule: Q04DX003 (ip), vehicle: saline 86 % of control

CCNC(=S)N(CC)CC
inactive: [11] 104 % of control | [12] 102 % of control | [2] 100 % of control | [13] 114 % of control | [3] 103 % of control

COc1c2c(cc3c(C)cc(=O)n(C)c13)c(C)cc(=O)n2C
inactive: [5] 99 % of control | [14] 92 % of control | [15] 101 % of control

CN(C)c1ccc(C(C[N+](=O)[O-])(c2ccc(N(C)C)cc2)c2ccc(N(C)C)cc2)cc1
inactive: [12] 93 % of control | [5] 103 % of control | [13] 100 % of control | [14] 93 % of control | dose: 400.0 mg/kg/injection, schedule: Q01DX009 (ip), vehicle: Klucel (hydroxypropylcellulose) (HPC) 97 % of control | [15] 90 % of control

O=C(O)C1CCC[N-]C1.O=C(O)C1CCC[N-]C1.[Cl][Pt+2][Cl] (centres undefined)
inactive: dose: 5.0 mg/kg/injection, schedule: Q01DX009 (ip), vehicle: saline with Tween-80 95 % of control | dose: 10.0 mg/kg/injection, schedule: Q01DX009 (ip), vehicle: saline with Tween-80 103 % of control | dose: 20.0 mg/kg/injection, schedule: Q01DX009 (ip), vehicle: saline with Tween-80 106 % of control

O=C(O)c1ccccc1C(=O)OC1CC2CCC1CC2 (centres undefined)
inactive: dose: 100.0 mg/kg/injection, schedule: Q01DX001 (ip), vehicle: saline with Tween-80 98 % of control | dose: 200.0 mg/kg/injection, schedule: Q01DX001 (ip), vehicle: saline with Tween-80 104 % of control | dose: 400.0 mg/kg/injection, schedule: Q01DX001 (ip), vehicle: saline with Tween-80 100 % of control

CC1(C)C(OC=O)C(C)(C)C1OC=O (centres undefined)
inactive: dose: 25.0 mg/kg/injection, schedule: Q01DX009 (ip), vehicle: Klucel (hydroxypropylcellulose) (HPC) 100 % of control | [11] 93 % of control | [12] 94 % of control | [5] 96 % of control | [14] 98 % of control

Cc1ccccc1Nc1c(C)cccc1C(=O)O
inactive: [10] 100 % of control | dose: 200.0 mg/kg/injection, schedule: Q01DX009 (ip), vehicle: saline 92 % of control | dose: 400.0 mg/kg/injection, schedule: Q01DX009 (ip), vehicle: saline 86 % of control

Cc1ccc(S(=O)(=O)N(CCCc2c(C)nc(N)[nH]c2=O)Cc2ccc([N+](=O)[O-])cc2)cc1
inactive: dose: 75.0 mg/kg/injection, schedule: Q01DX001 (ip), vehicle: Klucel (hydroxypropylcellulose) (HPC) 102 % of control | dose: 150.0 mg/kg/injection, schedule: Q01DX001 (ip), vehicle: Klucel (hydroxypropylcellulose) (HPC) 97 % of control | dose: 300.0 mg/kg/injection, schedule: Q01DX001 (ip), vehicle: Klucel (hydroxypropylcellulose) (HPC) 103 % of control
